Assay results as given in US8304239B2, “Direct regeneration of plantlets in Jatropha curcas” (Reliance Life Sciences PVT Ltd., priority 2006, dated 2012).

Key:
[1] = tested on: shoots of Jatropha curcas; assay: Rooting of well grown shoots on full strength MS medium; format: cell-based; conditions: full strength MS medium supplemented with IBA (0.41 μM)
Experimental: Well grown shoots of Jatropha curcas were separated individually and rooted on full strength MS medium supplemented with IBA (0.41 μM). Rooting was 80% and occurred after 30-45 days of culture without any intermediary callus phase. (FIG. 4)

[2] = tested on: Jatropha leaf disc explants; assay: Adventitious bud induction and callus formation from leaf disc explants on initiation media; format: cell-based, Jatropha curcas; conditions: TDZ treatment
From the text: Micropropagated true-to-type Jatropha curcas plants were produced and leaf discs were isolated and sterilized using the methods described in Example 1.
Experiments were set-up in a single-factor CRD (one-way ANOVA) to identify the most optimal concentrations of TDZ, BAP, and IBA in the initiation media. Initiated shoots were further propagated as described in the above Examples by being transferred to proliferation and elongation medium which was MS medium (Table 2) with 3% sucrose (w/v), pH 5.8 and solidified with 0.8% agar supplemented with TDZ (0.22 μM)+BAP (4.44 μM)+gibberelic acid (0.70 μM)+IBA (0.50 μM).
All the treatments were performed with 25 replicates, each replication having 8 leaf discs. Data on number of shoots per leaf disc were recorded after 6 weeks of culture.
Leaf discs cultured on almost all hormonal combinations readily produced hard and compact callus on cut surface within 30 days of culture. The adventitious bud induction from leaf disc explants was studied in presence of various concentrations of TDZ and BAP as a source of cytokinin along with very low levels of IBA.
Data scored after 6 weeks of culture inoculation.

SMILES | Time until rooting occurred [1] | Rooting ([1]; without intermediary callus phase) | total number of shoot bud induction per leaf disc [2]
O=C(O)CCCc1c[nH]c2ccccc12 [IBA, indole-3-butyric acid] | 30 to 45 days | 80% | 
O=C(Nc1ccccc1)Nc1cnns1 [TDZ, 1-phenyl-3-(1,2,3-thiadiazol-5-yl) urea] |  |  | 4-20 buds
